Source: the NIST ThermoML archive (doi:10.1016/j.fluid.2006.12.001)

assay: xn = mol fraction of the nth substance listed; details: 303.2 K; 101 kPa; Liquid; Taylor dispersion method; x1 = 0

With `CCn1cc[n+](C)c1.F[P-](F)(F)(F)(F)F` [1-ethyl-3-methylimidazolium hexafluorophosphate] + O as the molecule, how does the binary diffusion coefficient read?
The binary diffusion coefficient was 1.41e-09 m2/s.

With `CCn1cc[n+](C)c1.F[B-](F)(F)F` [1-ethyl-3-methylimidazolium tetrafluoroborate] + O as the molecule, how does the binary diffusion coefficient read?
The binary diffusion coefficient was 1.52e-09 m2/s.

Which binary diffusion coefficient does the source give for `CCCCCCCC[n+]1ccn(C)c1.F[B-](F)(F)F` [1-methyl-3-octylimidazolium tetrafluoroborate] + O here?
The binary diffusion coefficient was 1.14e-09 m2/s.

For `CCCCCCn1cc[n+](C)c1.F[B-](F)(F)F` [1-hexyl-3-methylimidazolium tetrafluoroborate] + O, which binary diffusion coefficient is on record?
The binary diffusion coefficient was 1.24e-09 m2/s.

Which binary diffusion coefficient does the source give for `CCCCn1cc[n+](C)c1.F[B-](F)(F)F` [1-butyl-3-methylimidazolium tetrafluoroborate] + O here?
Its binary diffusion coefficient is 1.3e-09 m2/s.

With `CCCCCCCC[n+]1ccn(C)c1.F[P-](F)(F)(F)(F)F` [1-octyl-3-methylimidazolium hexafluorophosphate] + O as the molecule, how does the binary diffusion coefficient read?
Its binary diffusion coefficient is 1.06e-09 m2/s.

Which binary diffusion coefficient does the source give for `CCCCn1cc[n+](C)c1.F[P-](F)(F)(F)(F)F` [1-butyl-3-methylimidazolium hexafluorophosphate] + O here?
The binary diffusion coefficient was 1.25e-09 m2/s.

With `CCCCCCn1cc[n+](C)c1.F[P-](F)(F)(F)(F)F` [1-hexyl-3-methylimidazolium hexafluorophosphate] + O as the molecule, how does the binary diffusion coefficient read?
Its binary diffusion coefficient is 1.11e-09 m2/s.
